Values quoted from earlier work, collected in patent publication US20040253299A1, “Transdermal therapeutic system (reservoir-tts) for using pramipexole and ropinirole” (priority 2001, published 2004).

Conditions: administered orally

SMILES	bioavailability [%]
CCCN(CCC)CCc1cccc2c1CC(=O)N2 [Ropinirole, 4-(2-di-n-propylaminoethyl)-2-(3H)-indolone]	50
CCCNC1CCc2nc(N)sc2C1 (centres unmarked) [pramipexole, 2-amino-6-n-propylamino-4,5,6,7-tetrahydrobenzothiazole]	90
